Results on 13 compounds are retold here after ChEMBL document CHEMBL3638726, “Substituted indole compounds having NOS inhibitory activity” (2013).

One experiment concerns the target T1, Nitric oxide synthase 3 (Homo sapiens, UniProt P29474).
T1 sequence (P29474 whole entry): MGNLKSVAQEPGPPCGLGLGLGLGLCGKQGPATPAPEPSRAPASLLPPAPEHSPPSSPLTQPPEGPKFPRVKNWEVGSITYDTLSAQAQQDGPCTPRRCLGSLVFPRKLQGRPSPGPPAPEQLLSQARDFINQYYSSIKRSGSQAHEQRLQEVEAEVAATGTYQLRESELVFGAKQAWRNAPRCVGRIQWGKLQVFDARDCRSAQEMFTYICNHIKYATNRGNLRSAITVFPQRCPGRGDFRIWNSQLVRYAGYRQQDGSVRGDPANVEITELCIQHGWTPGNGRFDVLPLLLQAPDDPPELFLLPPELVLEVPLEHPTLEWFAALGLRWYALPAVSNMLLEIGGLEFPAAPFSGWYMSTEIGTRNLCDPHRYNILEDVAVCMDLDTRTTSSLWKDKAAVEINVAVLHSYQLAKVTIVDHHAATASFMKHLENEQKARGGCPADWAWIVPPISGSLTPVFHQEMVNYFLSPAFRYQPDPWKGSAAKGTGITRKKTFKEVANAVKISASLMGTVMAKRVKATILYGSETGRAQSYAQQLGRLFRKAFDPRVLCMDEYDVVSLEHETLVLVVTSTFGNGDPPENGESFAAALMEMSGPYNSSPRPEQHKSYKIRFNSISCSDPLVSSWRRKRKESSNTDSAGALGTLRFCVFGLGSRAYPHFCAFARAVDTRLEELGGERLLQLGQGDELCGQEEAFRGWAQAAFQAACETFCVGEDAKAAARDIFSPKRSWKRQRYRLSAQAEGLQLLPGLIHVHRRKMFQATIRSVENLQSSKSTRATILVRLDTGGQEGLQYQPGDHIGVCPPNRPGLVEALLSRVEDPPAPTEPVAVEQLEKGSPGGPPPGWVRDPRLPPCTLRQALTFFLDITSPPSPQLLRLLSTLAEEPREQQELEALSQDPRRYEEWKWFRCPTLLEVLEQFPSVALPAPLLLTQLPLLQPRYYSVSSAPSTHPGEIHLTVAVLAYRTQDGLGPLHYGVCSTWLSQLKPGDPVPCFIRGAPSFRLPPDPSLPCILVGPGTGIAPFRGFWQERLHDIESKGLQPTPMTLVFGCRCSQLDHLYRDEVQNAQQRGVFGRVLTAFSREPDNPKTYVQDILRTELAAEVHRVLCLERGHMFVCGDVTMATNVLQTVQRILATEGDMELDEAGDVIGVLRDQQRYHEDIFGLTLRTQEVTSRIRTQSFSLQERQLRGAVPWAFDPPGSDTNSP
The experiment is described as follows: Enzyme Assay: Enzyme assay using recombinant human inducible NOS (iNOS), human endothelial constitutive NOS (eNOS) or human neuronal constitutive NOS (nNOS).
Turning to `CN1CC[C@@H](c2c[nH]c3ccc(/N=C(\N)c4cccs4)cc23)[C@H](F)C1`, the IC50 is 40.1 µM.

The target in another experiment is 5-hydroxytryptamine 1D receptor (Bos taurus, UniProt Q8MI13). The experiment is described as follows: Binding Assay: 5-HT1D binding assays (agonist radioligand)were performed using bovine caudate membranes according to the methods of Heuring and Peroutka (J. Neurosci 1987, 7: 894-903). 5-HT1B (rat cerebral cortex) binding assays (agonist radioligand) were performed according to the method of Hoyer et. al. (Eur. J. Pharmacol. […], 118: 1-12). It counts as tissue-based.
Chain of 5-hydroxytryptamine 1D receptor (Q8MI13 whole entry): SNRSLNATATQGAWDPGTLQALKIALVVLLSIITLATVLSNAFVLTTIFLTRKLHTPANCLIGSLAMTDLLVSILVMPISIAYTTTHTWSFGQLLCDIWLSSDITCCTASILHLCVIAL
The compound `CN1CC=C(c2c[nH]c3ccc(NC(=S)NC(=O)c4ccccc4)cc23)CC1` came in with an IC50 of 56 nM.

`CN1CC=C(c2c[nH]c3ccc(CNC(=N)c4cccs4)cc23)CC1` returned a half-inhibitory concentration (IC50) of 220 nM.

`CN1CC=C(c2c[nH]c3ccc(NC(=N)c4cccs4)cc23)CC1` yielded a half-inhibitory concentration (IC50) of 51 nM.

`CN1CC=C(c2c[nH]c3ccc(NC(=N)c4ccco4)cc23)CC1`: the IC50 was determined as 50 nM.

`CN1CCC(c2c[nH]c3ccc(NC(=N)c4cccs4)cc23)CC1` registered an IC50 of 570 nM.

Compound `CCSC(=N)Nc1ccc2[nH]cc(C3=CCN(C)CC3)c2c1` gave an IC50 of 48 nM.

Compound `CN(C)CCc1c[nH]c2ccc(CNC(=N)c3cccs3)cc12` showed an IC50 of 290 nM.

On to `CCN1CCC(c2c[nH]c3ccc(NC(=N)c4cccs4)cc23)CC1`, for which the concentration for half-maximal inhibition (IC50) is 680 nM.

The compound `CN1CCC[C@@H]1Cc1c[nH]c2ccc(NC(=N)c3cccs3)cc12` showed a half-inhibitory concentration (IC50) of 130 nM.

`CN1CCC[C@H]1Cc1c[nH]c2ccc(NC(=N)c3cccs3)cc12`: the IC50 amounted to 1100 nM.

Regarding `CN1CCC(c2c[nH]c3ccc(NC(=N)c4cccs4)cc23)C1` (stereo not drawn), the half-inhibitory concentration (IC50) stood at 350 nM.

In the case of `CN1CCC(c2c[nH]c3ccc(/N=C(\N)c4ccco4)cc23)C1` (stereo not drawn), the IC50 was determined as 560 nM.
